The source of these data is US20040180035A1, “IL-15 immunoconjugates and uses thereof” (EMD Lexigen Research Center Corp., priority 1998, published 2004).

The structures appear in SMILES notation.

This assay deals with LLC-Ep tumors. Nature of the assay: LLC-Ep subcutaneous tumor growth in C57BL/6 mice (Example 6). Type of assay: in vivo. The following applies: after treatment for 22 days; fusion protein 25 μg/mouse i.v., 5 daily injections; indomethacin 20 μg/mL in drinking water. The method, then: Female C57B1/6 mice were injected subcutaneously in the mid-back with LLC-Ep cells (2×10^6 cells per injection). When the tumors reached 600-1200 mm^3, the mice were sacrificed. The skin overlying the tumor was cleaned with betadine and ethanol, the tumors excised and necrotic tissue discarded. A suspension of tumor cells in phosphate buffered saline was prepared by passing viable tumor tissue through a sieve and then through a series of sequentially smaller […] needles of 22- to 30-gauge. The cells were adjusted to a concentration of 1×10^7 cells/mL and placed on ice. C57BL/6 mice then were injected with 0.1 mL of the freshly resuspended cells (1×10^6 cells/mouse) in the proximal midline of the subcutaneous dorsa.
When the tumors reached 100-200 mm^3 in size (about 7 to 14 days), the mice were randomized into four groups, 5 mice per group. Group 1 received intravenous injections of 0.2 mL of PBS daily. Group 2 received 5 daily intravenous injections of huKS-huγ1-huIL2 (25 μg/mouse) in PBS. Group 3 received indomethacin orally in drinking water (20 μg/mL, or about 60-70 μg of indomethacin consumed daily per mouse) throughout the treatment period. Group 4 received 5 daily intravenous injections of huKS-huγ1-huIL2(25 μg/mouse), and indomethacin orally in drinking water (20 μg/mL) throughout the treatment period. Tumor volumes were measured as described in Example 3. […]

Take `COc1ccc2c(c1)c(CC(=O)O)c(C)n2C(=O)c1ccc(Cl)cc1` [indomethacin]: the T/C ratio amounted to 0.60.
